From patent publication US6831190B1, “Guanidinomethyl cyclohexane carboxylic acid ester derivatives” (Teikoku Chemical Industries Co., Ltd., priority 1994, dated 2004) come the findings set out here.

The term MIC denotes the least concentration at which growth counts as inhibited. A lower MIC goes with greater potency.

Common to all, as to assay type: cell-based
For experiment [1], the system named is Helicobacter pylori ATCC 43504. In words: MIC, agar plating dilution (standard method of Japanese Chemotherapy Academy). As to conditions: Objected Strain 1: Helicobacter pylori ATCC 43504. Here is the method: (§1) 1. Minimum Inhibitory Concentration (MIC) was measured in accordance with the standard method of Japanese Chemotherapy Academy (Chemotherapy, 29: 76-79, 1981). Sensitivity was measured with an agar plating dilution using Brain-Heart Infusion agar (Difco Co.) which was added 0.1% of cyclodextrin. […] of the solutions of the compounds which were obtained in examples of the present invention was prepared by dissolving in dimethylsulfoxide. […] Each of 1 ml of those prepared solutions was dispensed in share, after sterilization, 9 ml of sensitivity measuring medium which is kept at 50° C. was added to each, and they were sufficiently mixed. The mixture was used as a plate for measuring sensitivity. Brain Heart Infusion agar medium (Difco Co.), which was added 0.1% of cyclodextrin, was used as bacteria growing medium, and was cultured under microair at 37° C. for three days, and the number of bacteria thereof was adjusted to about 106/ml. This was used as a bacterial solution for inoculation. The medium was painted in each square about 2 cm with nichromic line loop. The medium was cultured under microair for three days at 37° C.

Experiment [2] deals with Helicobacter pylori ATCC 43629. Described as above. The conditions noted are these: Objected Strain 2: Helicobacter pylori ATCC 43629. The procedure: as §1
Experiment [3] deals with Escherichia coli NIH JC-2. Description: MIC, standard method of Japanese Chemotherapy Academy. As to conditions: for MIC: Objected Strain 3: Escherichia coli NIH JC-2. The procedure:
(§2) 1. Minimum Inhibitory Concentration (MIC) was measured in accordance with the standard method of Japanese Chemotherapy Academy (Chemotherapy, 29: 76-79, 1981).

For experiment [4], the system named is Helicobacter pylori No. 1. In words: MIC, agar plating dilution, clinical segregation strain. As to conditions: Strain 4: Helicobacter pylori No. 1. Here is the method:
(§3) Minimum Inhibitory Concentration (MIC) was measured in accordance with the standard method of Japanese Chemotherapy Academy (Chemotherapy, 29: 76-79, 1981). Sensitivity was measured with an agar plating dilution using Brain-Heart Infusion agar (Difco Co.) which was added 0.1% of cyclodextrin. […] of the solutions of the compounds which were obtained in examples of the present invention was prepared by dissolving in dimethylsulfoxide. […] Each of 1 ml of those prepared solutions was dispensed in share, after sterilization, 9 ml of sensitivity measuring medium which is kept at 50° C. was added to each, and they were sufficiently mixed. The mixture was used as a plate for measuring sensitivity. Brain Heart Infusion agar medium (Difco Co.), which was added 0.1% of cyclodextrin, was used as bacteria growing medium, and was cultured under microair at 37° C. for three days, and the number of bacteria thereof was adjusted to about 106/ml. This was used as a bacterial solution for inoculation. The medium was painted in each square about 2 cm with nichromic line loop. The medium was cultured under microair for three days at 37° C. […] The each result is shown at Table 4.

The test system of experiment [5] is Helicobacter pylori No. 2. The experiment is described as above. As to conditions: Strain 5: Helicobacter pylori No. 2. Here is the method:
as §3

Experiment [6] relates to Helicobacter pylori No. 3. The experiment is described as above. The conditions noted are these: Strain 6: Helicobacter pylori No. 3. The procedure:
as §3

For experiment [7], the system named is Helicobacter pylori No. 4. The description is as above. As to conditions: Strain 7: Helicobacter pylori No. 4. The procedure: as §3
In experiment [8] the test system is Bacillus subtilis ATCC 6633. Description: MIC, standard method of Japanese Chemotherapy Academy. As to conditions: standard method of Japanese Chemotherapy Academy. The procedure:
as §2
And MIC of the compounds of Example 3, 36, 8, 14, 17, 21, 41 and 45 were measured.

As for `Cl.N=C(N)NC[C@H]1CC[C@H](C(=O)Oc2ccc(-c3ccc(C(=O)OCc4ccccc4F)cc3)cc2)CC1` [Example 19, trans-4-guanidinomethyl cyclohexane carboxylic acid [4-[4-(2-fluorobenzyloxycarbonyl)phenyl]phenylester].hydrochloride], the MIC in experiment [1] was 0.39 µg/mL; in experiment [2] it was 0.39 µg/mL; in experiment [3] it was >25 µg/mL; in experiment [4], 0.20 µg/mL; in experiment [5], 0.78 µg/mL; in experiment [6] it was 0.20 µg/mL. The MIC in experiment [7] stood at 0.39 µg/mL. Moreover, the MIC against bacillus subcillus ATCC 6633 in experiment [8] is > 25 µg/mL.

For `CCCC[C@H]1CC[C@H](COC(=O)c2ccc(-c3ccc(OC(=O)[C@H]4CC[C@H](CNC(=N)N)CC4)cc3)cc2)CC1.Cl` [Example 42, trans-4-guanidinomethyl cyclohexane carboxylic acid[4-[4-(trans-4-n-butylcyclohexylmethloxycarbonyl)phenyl]phenylester].hydrochloride], the MIC in experiment [1] is 0.39 µg/mL; in experiment [2], 1.56 µg/mL; in experiment [3], >25 µg/mL; in experiment [4], 0.39 µg/mL; in experiment [5], 1.56 µg/mL; in experiment [6], 0.20 µg/mL. Moreover, in experiment [7], the MIC came out at 0.39 µg/mL.

In the case of `Cl.N=C(N)NC[C@H]1CC[C@H](C(=O)Oc2ccc(-c3ccc(C(=O)OCCCc4ccccc4)cc3)cc2)CC1` [Example 39, trans-4-guanidinomethyl cyclohexane carboxylic acid[4-[4-(3-phenylpropyloxycarbonyl)phenyl]phenylester].hydrochloride], the MIC is 0.39 µg/mL in experiment [1]; 0.78 µg/mL in experiment [2]; >25 µg/mL in experiment [3]; 0.39 µg/mL in experiment [4]; 0.78 µg/mL in experiment [5]; 0.20 µg/mL in experiment [6]. The same compound registered an MIC in experiment [7] of 0.39 µg/mL.

For `Cc1ccc(COC(=O)c2ccc(-c3ccc(OC(=O)[C@H]4CC[C@H](CNC(=N)N)CC4)c(Br)c3)cc2)cc1.Cl` [Example 24, trans-4-guanidinomethyl cyclohexane carboxylic acid[2-bromo-4-[4-(4-methylbenzyloxycarbonyl)phenyl]phenylester].hydrochloride], the MIC was 0.39 µg/mL in experiment [1]; 0.78 µg/mL in experiment [2]; >25 µg/mL in experiment [3]; 0.39 µg/mL in experiment [5]; 0.20 µg/mL in experiment [6]; 0.39 µg/mL in experiment [7]. Moreover, the MIC against bacillus subcillus ATCC 6633 in experiment [8] is > 25 µg/mL.

Regarding `Cl.N=C(N)NC[C@H]1CC[C@H](C(=O)Oc2ccc(-c3ccc(C(=O)OCCCOc4ccc(F)cc4)cc3)cc2)CC1` [Example 40, trans-4-guanidinomethyl cyclohexane carboxylic acid[4-[4-[3-(4-fluorophenyloxy)propyloxycarbonyl]phenyl]phenylester].hydrochloride], the MIC in experiment [1] is 0.20 µg/mL; in experiment [2] it was 0.39 µg/mL; in experiment [3], >25 µg/mL; in experiment [4], 0.20 µg/mL; in experiment [5], 0.78 µg/mL; in experiment [6], 0.10 µg/mL. This compound had an MIC in experiment [7] of 0.39 µg/mL.

In the case of `CC(C)OC(=O)c1ccc(-c2ccc(OC(=O)[C@H]3CC[C@H](CNC(=N)N)CC3)cc2)cc1.Cl` [Example 20, trans-4-guanidinomethyl cyclohexane carboxylic acid [4-(4-isopropyloxycarbonyl)phenylphenylester].hydrochloride], the MIC was 0.78 µg/mL in experiment [1]; 0.78 µg/mL in experiment [2]; >25 µg/mL in experiment [3]; 0.39 µg/mL in experiment [4]; 1.56 µg/mL in experiment [5]; 0.39 µg/mL in experiment [6]. The compound also displayed an MIC in experiment [7] of 0.78 µg/mL.

`COc1ccc(COC(=O)c2ccc(-c3ccc(OC(=O)[C@H]4CC[C@H](CNC(=N)N)CC4)cc3)cc2)cc1.Cl` [Example 18, trans-4-guanidinomethyl cyclohexane carboxylic acid [4-[4-(4-methoxybenzyloxy carbonyl)phenyl]phenylester].hydrochloride]: the MIC was 0.78 µg/mL in experiment [1]; 0.78 µg/mL in experiment [2]; >25 µg/mL in experiment [3]; 0.20 µg/mL in experiment [4]; 0.78 µg/mL in experiment [5]; 0.20 µg/mL in experiment [6]. In experiment [7], this compound had an MIC of 0.39 µg/mL. The same compound gave an MIC against bacillus subcillus ATCC 6633 in experiment [8] of 25 µg/mL.

Take `Cl.N=C(N)NC[C@H]1CC[C@H](C(=O)Oc2ccc(-c3ccc(C(=O)OCC4CCCCC4)cc3)cc2)CC1` [Example 23, trans-4-guanidinomethyl cyclohexane carboxylic acid [4-(4-cyclohexylmethyloxy carbonylphenyl)phenylester].hydrochloride]: the MIC in experiment [1] was 0.20 µg/mL; in experiment [2], 0.39 µg/mL; in experiment [3] it was >25 µg/mL; in experiment [4] it was 0.20 µg/mL; in experiment [5], 0.39 µg/mL; in experiment [6], 0.20 µg/mL. Besides, the MIC in experiment [7] stood at 0.39 µg/mL. Also, the MIC against bacillus subcillus ATCC 6633 in experiment [8] was determined as 25 µg/mL.

Take `Cl.N=C(N)NC[C@H]1CC[C@H](C(=O)Oc2ccc(-c3ccccc3)cc2)CC1` [Compound 1, trans-4-guanidinomethyl cyclohexane carboxylic acid (4-phenylphenylester)hydrochloride, reference compound]: the MIC in experiment [1] was 3.13 µg/mL; in experiment [2], 0.78 µg/mL; in experiment [3], >25 µg/mL; in experiment [4], 0.39 µg/mL; in experiment [5], 1.56 µg/mL; in experiment [6] it was 0.39 µg/mL. Moreover, the MIC in experiment [7] was 0.78 µg/mL.

Regarding “4-[4-(trans-4-guanidinomethyl cyclohexylcarbonyloxy)phenyl]benzoate.methansulfonate [Example 28]”, the MIC against Escherichia coli. NHJC-2 in experiment [3] (standard method of Japanese Chemotherapy Academy) was > 25 µg/mL. Besides, the MIC against bacillus subcillus ATCC 6633 in experiment [8] was > 25 µg/mL.

For `CCOC(=O)c1ccc(-c2ccc(OC(=O)[C@H]3CC[C@H](CNC(=N)N)CC3)cc2)cc1.Cl` [Example 2, trans-4-guanidinomethyl cyclohexane carboxylic acid [4-(4-ethoxycarbonylphenyl)phenylester].hydrochloride], the MIC in experiment [1] is 1.56 µg/mL; in experiment [2], 0.78 µg/mL; in experiment [3], >25 µg/mL; in experiment [4], 0.39 µg/mL; in experiment [5] it was 1.56 µg/mL; in experiment [6], 0.39 µg/mL. This compound also yielded an MIC in experiment [7] of 0.78 µg/mL.

Turning to `Cl.N=C(N)NC[C@H]1CC[C@H](C(=O)Oc2cccc(-c3ccccc3)c2)CC1` [Example 1, trans-4-guanidinomethyl cyclohexane carboxylic acid (3-phenylphenylester).hydrochloride], the MIC in experiment [1] is 12.5 µg/mL; in experiment [2] it was 6.25 µg/mL; in experiment [3], >25 µg/mL.

Regarding `Cl.N=C(N)NC[C@H]1CC[C@H](C(=O)Oc2ccc(OCc3ccccc3)cc2)CC1` [Example 37, trans-4-guanidinomethyl cyclohexane carboxylic acid (4-benzyloxyphenylester).hydrochloride], the MIC is 12.5 µg/mL in experiment [1], 3.13 µg/mL in experiment [2] and >25 µg/mL in experiment [3].

Regarding `Cl.N=C(N)NC[C@H]1CC[C@H](C(=O)Oc2c(Cl)cc(-c3ccccc3)cc2Cl)CC1` [Example 13, trans-4-guanidinomethyl cyclohexane carboxylic acid (2,6-dichloro-4-phenylphenylester).hydrochloride], the MIC in experiment [1] was 12.5 µg/mL; in experiment [2], 12.5 µg/mL; in experiment [3] it was >25 µg/mL.
